In patent US20240190876A1, “Tricyclic Urea Compounds As JAK2 V617F Inhibitors” (Incyte Corporation, priority 2022, published 2024):

Assays:
FLT3 [1] = target: T1, FLT3 (Homo sapiens, UniProt P36888); assay: FLT3 Enzymatic Assay; type: biochemical; conditions: HTRF kinase assay, 1 mM ATP
T1 sequence (P36888 27-993): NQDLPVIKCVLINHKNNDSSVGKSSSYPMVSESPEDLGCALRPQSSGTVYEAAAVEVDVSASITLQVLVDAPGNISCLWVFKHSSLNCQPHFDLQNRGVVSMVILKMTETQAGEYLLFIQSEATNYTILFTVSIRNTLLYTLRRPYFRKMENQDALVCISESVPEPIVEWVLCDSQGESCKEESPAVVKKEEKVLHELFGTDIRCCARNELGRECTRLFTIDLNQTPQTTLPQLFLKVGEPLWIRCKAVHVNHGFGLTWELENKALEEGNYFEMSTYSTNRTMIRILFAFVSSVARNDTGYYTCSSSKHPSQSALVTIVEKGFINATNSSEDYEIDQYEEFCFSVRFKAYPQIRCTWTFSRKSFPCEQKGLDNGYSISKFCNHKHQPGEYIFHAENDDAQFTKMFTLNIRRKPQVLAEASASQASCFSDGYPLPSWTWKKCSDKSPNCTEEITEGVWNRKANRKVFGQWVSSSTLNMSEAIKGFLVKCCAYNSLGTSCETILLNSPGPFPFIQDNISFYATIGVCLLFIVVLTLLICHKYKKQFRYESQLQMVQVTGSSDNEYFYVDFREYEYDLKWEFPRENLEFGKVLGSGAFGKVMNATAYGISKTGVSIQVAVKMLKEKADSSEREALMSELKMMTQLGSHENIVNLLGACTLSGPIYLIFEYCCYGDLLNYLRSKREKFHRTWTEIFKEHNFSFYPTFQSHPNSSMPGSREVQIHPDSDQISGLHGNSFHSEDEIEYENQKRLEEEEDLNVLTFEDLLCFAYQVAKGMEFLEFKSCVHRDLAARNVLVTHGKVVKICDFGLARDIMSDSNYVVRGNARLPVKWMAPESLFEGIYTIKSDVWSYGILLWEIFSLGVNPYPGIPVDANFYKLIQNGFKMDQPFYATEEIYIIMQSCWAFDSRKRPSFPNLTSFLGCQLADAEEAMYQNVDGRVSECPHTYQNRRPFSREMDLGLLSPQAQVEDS
Description: (§1) The kinase assays were carried out at room temperature in assay buffer (HEPES 50 mM, pH 7.0, NaN3 0.02%, BSA 0.01%, Orthovanadate 0.1 mM, DTT 1 mM, MgCl2 10 mM) in a final volume of 10 μL. Testing compounds were prepared by serial dilution in DMSO and transferred to the plate wells by ECHO liquid handler (Labcyte) with 0.5% DMSO in the final assay. […]. Reactions were initiated by the addition of 5 μL ATP in assay buffer. The final 10 μL kinase reaction consists of 0.011 nM FLT3, 1 mM ATP, 500 nM TK Substrate-biotin and SEB reagent 62.5 nM in assay buffer. […] The plates were then sealed and centrifuged at 1800 rpm for 2 minutes. After 60 minutes incubation at room temperature, the product activity was determined by measuring the fluorescence at 620 nm and 665 nm on Pherastar microplate reader (BMG Labtech). A ratio is calculated (665/620 nm) for each well. Wells with DMSO only were served as the positive controls and wells containing no ATP were used as negative controls. IC50 determination was performed by fitting the curve of percent control activity versus the log of the compound concentration using the GraphPad Prism 7.0 software.

FLT3 [2] = assay: FLT3 Enzymatic Assay; type: biochemical; conditions: ratio FLT3 IC50 / JH2 V617F binding IC50
Description: as §1

[3] = test system: pSTAT5 signaling in SET-2 cells in whole blood; assay: pSTAT5 SET-2 Whole Blood MSD Assay; type: cell-based; conditions: Homo sapiens, SET-2 cells with whole blood, 2 hour incubation, read-out: SET2 WB IC50
Description: SET-2 cells shipped from ABS, RPMI1640 medium, Fetal Bovine Serum from Gibco, Phospho-STAT5a,b Whole Cell Lysate Kit from Mesoscale, Retronectin (Recombinant Human Fibronectin Fragment) from TaKaRa, 96 well cell culture plate flat bottom from Corning, lysis buffer from Cell Signaling Technology, and sterile PBS from Gibco. Whole Blood from by BioIVT.
SET-2 cells were cultured in RPMI media with 20% FBS at 37° C. humidified incubator supplied with 5% CO2. On the day of the assay, 40 μL per well of diluted retronectin working solution was added to sterile 96-well clear flat bottom tissue culture plates (1:200 dilution of retronectin in sterile PBS) and incubated at 37C for 1 hour. After 1 hour, the retronectin working solution was aspirated and SET-2 cells were seeded at 100,000/well in RPMI+20% FBS. Cells were incubated overnight at 37° C. and 5% CO2.
The next day, the medium was removed and 40 μL of diluted compounds in serum-free RPMI and whole blood was added to the cells for a 2 hour incubation at 37° C. and 5% CO2. The compound starting concentration is 20 μM and 2.5 fold serial diluted down to 0.21 nM. The whole blood and compound mixture was then aspirated off using the BlueCat plate washer and washed 1× with PBS. Cells were lysed by adding 40 μL of 3X complete lysis buffer and shaken at room temperature for 45-60 minutes (complete lysis buffer consists of Cell Signaling Technology lysis buffer diluted to 3X and supplemented with Mesoscale's protease inhibitor, phosphatase I inhibitor, and phosphatase II inhibitor). The pSTAT5 MSD plates were blocked by adding 150 μL of Blocker A solution per well to the MSD plates and incubated at room temperature with shaking at 400 rpm for one hour or longer. After blocking, plates were washed 3X with 300 μL/well of IX Tris Wash Buffer. After lysis, added 25 μL per well of lysed sample was added to MSD plate and incubated with shaking at 4° C. wrapped in foil overnight. The next day, plates were washed again and 25 μL/well of diluted 1X Detection Antibody Solution, wrapped in foil, and incubated at room temperature with shaking at 400 rpm for 1 hour.
Plates were then washed again and lastly, 150 μL/well of 1X Read Buffer T was added to all wells. Plates were analyzed on MSD Discovery within 5 minutes. […] Data analysis was performed in GraphPad Prism using a 4-parameter fit and data was reported as Average ±SD.

Structure (SMILES)	IC50 (FLT3 [1]) [nM]	Selectivity FLT3/JH2 V617F (FLT3 [2])	IC50 [3] [nM]
COc1ccc(-c2c(-c3cn(C)nc3OC)[nH]c3ncc4c(c23)n([C@H]2CC[C@@](C)(NC(=O)C3CC3)CC2)c(=O)n4C)cc1 [Example 1, N-((1s,4s)-4-(7-(3-Methoxy-1-methyl-1H-pyrazol-4-yl)-8-(4-methoxyphenyl)-3-methyl-2-oxo-3,6-dihydroimidazo[4,5-d]pyrrolo[2,3-b]pyridin-1(2H)-yl)-1-methylcyclohexyl)cyclopropanecarboxamide]	> 2500	***** (***** refers to selectivity of >5000-fold to ≤12500-fold)	2500 to 5000
[2H]C([2H])([2H])n1ncc2cc(-c3c(-c4cn(C)nc4OC)[nH]c4ncc5c(c34)n([C@H]3CC[C@@](C)(NC(=O)C4CC4)CC3)c(=O)n5C)ccc21 [Example 2, N-((1s,4s)-4-(7-(3-Methoxy-1-methyl-1H-pyrazol-4-yl)-3-methyl-8-(1-(methyl-d3)-1H-indazol-5-yl)-2-oxo-3,6-dihydroimidazo[4,5-d]pyrrolo[2,3-b]pyridin-1(2H)-yl)-1-methylcyclohexyl)cyclopropanecarboxamide]	1250 to 2500	****** (****** refers to selectivity of >12500-fold)	≤ 2500
[2H]C([2H])([2H])n1cc(-c2[nH]c3ncc4c(c3c2-c2ccc(OC)cc2)n([C@H]2CC[C@@](C)(NC(=O)C3CC3)CC2)c(=O)n4C)c(F)n1 [Example 3, N-((1s,4s)-4-(7-(3-fluoro-1-(methyl-d3)-1H-pyrazol-4-yl)-8-(4-methoxyphenyl)-3-methyl-2-oxo-3,6-dihydroimidazo[4,5-d]pyrrolo[2,3-b]pyridin-1(2H)-yl)-1-methylcyclohexyl)cyclopropanecarboxamide]	250 to 1250	** (** refers to selectivity of >500-fold to ≤1500-fold)	2500 to 5000
[2H]C([2H])([2H])n1cc(-c2[nH]c3ncc4c(c3c2-c2ccc3c(cnn3C([2H])([2H])[2H])c2)n([C@H]2CC[C@@](C)(NC(=O)C3CC3)CC2)c(=O)n4C)c(F)n1 [Example 4, N-((1s,4s)-4-(7-(3-fluoro-1-(methyl-d3)-1H-pyrazol-4-yl)-3-methyl-8-(1-(methyl-d3)-1H-indazol-5-yl)-2-oxo-3,6-dihydroimidazo[4,5-d]pyrrolo[2,3-b]pyridin-1(2H)-yl)-1-methylcyclohexyl)cyclopropanecarboxamide]	250 to 1250	*** (*** refers to selectivity of >1500-fold to ≤1750-fold)	≤ 2500
[2H]C([2H])([2H])n1ncc2cc(-c3c(-c4cn(CC)nc4F)[nH]c4ncc5c(c34)n([C@H]3CC[C@@](C)(NC(=O)C4CC4)CC3)c(=O)n5C)ccc21 [Example 5, N-((1s,4s)-4-(7-(1-Ethyl-3-fluoro-1H-pyrazol-4-yl)-3-methyl-8-(1-(methyl-d3)-1H-indazol-5-yl)-2-oxo-3,6-dihydroimidazo[4,5-d]pyrrolo[2,3-b]pyridin-1(2H)-yl)-1-methylcyclohexyl)cyclopropanecarboxamide]	25 to 250	** (** refers to selectivity of >500-fold to ≤1500-fold)	≤ 2500
[2H]C([2H])([2H])n1cc(-c2[nH]c3ncc4c(c3c2-c2ccc(OC)cc2)n([C@H]2CC[C@@](C)(NC(=O)[C@H]3C[C@H]3F)CC2)c(=O)n4C([2H])([2H])[2H])c(F)n1 [Example 6, (1R,2R)-2-Fluoro-N-((1s,4S)-4-(7-(3-fluoro-1-(methyl-d3)-1H-pyrazol-4-yl)-8-(4-methoxyphenyl)-3-(methyl-d3)-2-oxo-3,6-dihydroimidazo[4,5-d]pyrrolo[2,3-b]pyridin-1(2H)-yl)-1-methylcyclohexyl)cyclopropane-1-carboxamide]	25 to 250	** (** refers to selectivity of >500-fold to ≤1500-fold)	≤ 2500
